Drawing on PubChem BioAssay (NCI), this text covers TGI for 20 compounds.

The structures appear in SMILES notation.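 Method: 48-hour compound exposure of cells in 96-well plates, five concentrations, linear interpolation of endpoints. TGI: total growth inhibition.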

The subject of the first test is HCT-15 colon. In words: NCI anticancer screen, dose series, 48 h.
In the case of `CCCCC1(NN=C2CCCCC2)C(=O)N(c2ccccc2)N(c2ccccc2)C1=O`, the TGI is > 100 µM.

Regarding `Cc1nc2ccc(Br)cc2c(=O)n1-c1nnc(C(C)(C)C)s1`, the TGI was > 10 µM.

Regarding `COc1cc2c(cc1O)c(O)cc1c3cc(OC)c(OC)cc3c[n+](C)c21`, the TGI was > 100 µM.

As for `NC(N)=NS(=O)(=O)c1ccc(NNc2c3ccccc3nc3ccccc23)cc1`, the TGI is > 100 µM.

In the case of `COc1cc2c(cc1OCCCCCCCCCCN1C(=O)c3cccc4cccc(c34)C1=O)N=C[C@@H]1CCCN1C2=O`, the TGI was 16.9 µM.

Turning to `O=C(NC1=C(Cl)C(=O)c2ccccc2C1=O)c1ccccc1`, the TGI came to 62.6 µM.

With `COc1ccc(Cn2c(=O)c(OC)c(C)c3cc4ccccc4cc32)cc1`, the TGI is > 100 µM.

For the compound `COC(=O)C1Cc2cc3c(cc2C1=O)CCC3` (stereo not given), the TGI was > 100 µM.

As for `O=C1/C(=C\c2ccc([N+](=O)[O-])cc2)N(S(=O)(=O)c2ccccc2)c2ncccc21`, the TGI turned out to be 32.3 µM.

As to `CC(=O)SCCC(NC(=S)Nc1ccccc1)P(=O)(Oc1ccccc1)Oc1ccccc1` (stereo not given), the TGI is > 100 µM.

In the case of `Nc1ccccc1CCN1CCN(CCCc2ccccc2)CC1`, the TGI was > 100 µM.

`O=C1NC(=S)N/C1=C\c1cccs1`: the TGI is > 100 µM.

As to `CSc1c(C(=O)Nc2ccccc2)c(N)n(N)c(=O)c1C#N`, the TGI is > 100 µM.

Compound `CC(C)(C)C1CCC(=O)/C(=C/CC2CC(=O)N(c3ccccc3)C(=O)C2)C1` (stereo not given) returned a TGI of 33.2 µM.

With `CC12C=CC(C)(C3C(=O)C4C(C(=O)C31)C1(C)C=CC4(C)S1=O)S2=O` (stereo not given), the TGI is > 100 µM.

In another test the test system is HOP-92 NSCLC. In words: NCI anticancer screen, dose series, 48 h.
For `O=C1CS(=O)(=O)C(c2cccc(Oc3ccccc3)c2)N1c1ccc(Cl)cc1` (stereo not given), the TGI was 23.8 µM.

As to `COc1ccc(/C=C2\N=C(N3CCCCC3)NC2=O)cc1`, the TGI is > 100 µM.

In the case of `Cc1nc2ccc(Br)cc2c(=O)n1-c1nnc(C(C)(C)C)s1`, the TGI is > 10 µM.

As for `NC(N)=NS(=O)(=O)c1ccc(NNc2c3ccccc3nc3ccccc23)cc1`, the TGI was found to be 31.5 µM.

For the compound `O=C(NC1=C(Cl)C(=O)c2ccccc2C1=O)c1ccccc1`, the TGI was 39.9 µM.

In the case of `CC(=O)SCCC(NC(=S)Nc1ccccc1)P(=O)(Oc1ccccc1)Oc1ccccc1` (stereo not given), the TGI is > 100 µM.

In the next test the test system is HS 578T breast. The test can be described thus: NCI anticancer screen, dose series, 48 h.
Take `O=C1CS(=O)(=O)C(c2cccc(Oc3ccccc3)c2)N1c1ccc(Cl)cc1` (stereo not given): the TGI was > 100 µM.

The compound `Clc1ccc(CCN(CCc2ccc(Cl)c(Cl)c2)CCN2CCCC2)cc1Cl` came in with a TGI of 4.47 µM.

On to `C=C(CCOC)CCC1CCCCC(CN(C)C)C1=O` (stereo not given), for which the TGI is > 100 µM.

With `ONC1=Nc2cc(Cl)ccc2C(=S)N2CSCC12` (stereo not given), the TGI was > 100 µM.

Take `COc1ccc(/C=C2\N=C(N3CCCCC3)NC2=O)cc1`: the TGI is > 100 µM.

For the compound `CCCCC1(NN=C2CCCCC2)C(=O)N(c2ccccc2)N(c2ccccc2)C1=O`, the TGI was > 100 µM.

As to `Cc1nc2ccc(Br)cc2c(=O)n1-c1nnc(C(C)(C)C)s1`, the TGI is > 10 µM.

For `COc1cc2c(cc1O)c(O)cc1c3cc(OC)c(OC)cc3c[n+](C)c21`, the TGI is > 27.4 µM.

For the compound `NC(N)=NS(=O)(=O)c1ccc(NNc2c3ccccc3nc3ccccc23)cc1`, the TGI came to 93.6 µM.

Compound `COc1cc2c(cc1OCCCCCCCCCCN1C(=O)c3cccc4cccc(c34)C1=O)N=C[C@@H]1CCCN1C2=O` displayed a TGI of 75.3 µM.

As to `O=C(NC1=C(Cl)C(=O)c2ccccc2C1=O)c1ccccc1`, the TGI is > 100 µM.

`COc1ccc(Cn2c(=O)c(OC)c(C)c3cc4ccccc4cc32)cc1`: the TGI is > 100 µM.

For the compound `COC(=O)C1Cc2cc3c(cc2C1=O)CCC3` (stereo not given), the TGI is > 100 µM.

The compound `O=C1/C(=C\c2ccc([N+](=O)[O-])cc2)N(S(=O)(=O)c2ccccc2)c2ncccc21` displayed a TGI of 81.3 µM.

Take `CC(=O)SCCC(NC(=S)Nc1ccccc1)P(=O)(Oc1ccccc1)Oc1ccccc1` (stereo not given): the TGI is > 100 µM.

On to `Nc1ccccc1CCN1CCN(CCCc2ccccc2)CC1`, for which the TGI was > 100 µM.

On to `O=C1NC(=S)N/C1=C\c1cccs1`, for which the TGI is > 100 µM.

For `CSc1c(C(=O)Nc2ccccc2)c(N)n(N)c(=O)c1C#N`, the TGI is > 100 µM.

`CC(C)(C)C1CCC(=O)/C(=C/CC2CC(=O)N(c3ccccc3)C(=O)C2)C1` (stereo not given) came in with a TGI of 94.5 µM.

As to `CC12C=CC(C)(C3C(=O)C4C(C(=O)C31)C1(C)C=CC4(C)S1=O)S2=O` (stereo not given), the TGI was > 100 µM.

The next test deals with MDA-MB-435. In words: NCI anticancer screen, dose series, 48 h.
`O=C1CS(=O)(=O)C(c2cccc(Oc3ccccc3)c2)N1c1ccc(Cl)cc1` (stereo not given) showed a TGI of 73.4 µM.

Take `Clc1ccc(CCN(CCc2ccc(Cl)c(Cl)c2)CCN2CCCC2)cc1Cl`: the TGI worked out at 2.75 µM.

As for `C=C(CCOC)CCC1CCCCC(CN(C)C)C1=O` (stereo not given), the TGI was > 100 µM.

In the case of `ONC1=Nc2cc(Cl)ccc2C(=S)N2CSCC12` (stereo not given), the TGI is > 100 µM.

In the case of `COc1ccc(/C=C2\N=C(N3CCCCC3)NC2=O)cc1`, the TGI is > 100 µM.

In the case of `CCCCC1(NN=C2CCCCC2)C(=O)N(c2ccccc2)N(c2ccccc2)C1=O`, the TGI is > 100 µM.

In the case of `Cc1nc2ccc(Br)cc2c(=O)n1-c1nnc(C(C)(C)C)s1`, the TGI is > 10 µM.

`COc1cc2c(cc1O)c(O)cc1c3cc(OC)c(OC)cc3c[n+](C)c21` displayed a TGI of 30.9 µM.

Turning to `NC(N)=NS(=O)(=O)c1ccc(NNc2c3ccccc3nc3ccccc23)cc1`, the TGI was 33.9 µM.

Turning to `COc1cc2c(cc1OCCCCCCCCCCN1C(=O)c3cccc4cccc(c34)C1=O)N=C[C@@H]1CCCN1C2=O`, the TGI came to 18.8 µM.

With `O=C(NC1=C(Cl)C(=O)c2ccccc2C1=O)c1ccccc1`, the TGI is 47.6 µM.

Regarding `COc1ccc(Cn2c(=O)c(OC)c(C)c3cc4ccccc4cc32)cc1`, the TGI is > 100 µM.

For `COC(=O)C1Cc2cc3c(cc2C1=O)CCC3` (stereo not given), the TGI is > 100 µM.

`O=C1/C(=C\c2ccc([N+](=O)[O-])cc2)N(S(=O)(=O)c2ccccc2)c2ncccc21` returned a TGI of 47.2 µM.

In the case of `CC(=O)SCCC(NC(=S)Nc1ccccc1)P(=O)(Oc1ccccc1)Oc1ccccc1` (stereo not given), the TGI was > 100 µM.

Take `Nc1ccccc1CCN1CCN(CCCc2ccccc2)CC1`: the TGI was > 100 µM.

Regarding `O=C1NC(=S)N/C1=C\c1cccs1`, the TGI is > 100 µM.

For the compound `CSc1c(C(=O)Nc2ccccc2)c(N)n(N)c(=O)c1C#N`, the TGI is > 100 µM.

As for `CC(C)(C)C1CCC(=O)/C(=C/CC2CC(=O)N(c3ccccc3)C(=O)C2)C1` (stereo not given), the TGI was found to be 64.8 µM.

A further test concerns NCI/ADR-RES ovarian. The test can be described thus: NCI anticancer screen, dose series, 48 h.
As to `O=C1CS(=O)(=O)C(c2cccc(Oc3ccccc3)c2)N1c1ccc(Cl)cc1` (stereo not given), the TGI is > 100 µM.

In turn, `Clc1ccc(CCN(CCc2ccc(Cl)c(Cl)c2)CCN2CCCC2)cc1Cl` showed a TGI of 3.39 µM.

With `C=C(CCOC)CCC1CCCCC(CN(C)C)C1=O` (stereo not given), the TGI was > 100 µM.

Consider `ONC1=Nc2cc(Cl)ccc2C(=S)N2CSCC12` (stereo not given), for which the TGI was > 100 µM.

Take `COc1ccc(/C=C2\N=C(N3CCCCC3)NC2=O)cc1`: the TGI was > 100 µM.

For the compound `CCCCC1(NN=C2CCCCC2)C(=O)N(c2ccccc2)N(c2ccccc2)C1=O`, the TGI was > 100 µM.

In the case of `Cc1nc2ccc(Br)cc2c(=O)n1-c1nnc(C(C)(C)C)s1`, the TGI was > 10 µM.

As to `COc1cc2c(cc1O)c(O)cc1c3cc(OC)c(OC)cc3c[n+](C)c21`, the TGI was > 100 µM.

`NC(N)=NS(=O)(=O)c1ccc(NNc2c3ccccc3nc3ccccc23)cc1` yielded a TGI of 90.7 µM.

For `COc1cc2c(cc1OCCCCCCCCCCN1C(=O)c3cccc4cccc(c34)C1=O)N=C[C@@H]1CCCN1C2=O`, the TGI worked out at 14.4 µM.
